Source: US20240409536A1, “COMPOUNDS AND METHODS FOR MODULATING SPLICING” (REMIX THERAPEUTICS INC., priority 2021, published 2024)
pIC50: −log10 of the molar value.

Key:
[1] = tested on: MYB mRNA; assay: Splicing RT-qPCR assay, MYB canonical (CJ) and alternative (AJ) junction mRNA; assay type: cell-based; conditions: Homo sapiens, A673 or K562 cells, 24 hours; for pIC50: decrease in canonical junction mRNA; for AC50: increase in alternative junction mRNA
Method in brief: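 A673 or K562 cells were treated 24 h at 37 °C with compounds in an 11-point 3-fold dilution series (top final 10 uM, DMSO ≤0.25%). Lysates were analysed by one-step RT-qPCR for canonical (CJ) and alternative-exon (AJ) junction isoforms, normalized to GAPDH, GUSB or PPIA.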

[2] = tested on: MYB mRNA; assay: Gene panel canonical junction qPCR assay, MYB CJ mRNA decrease; assay type: cell-based, human; conditions: Homo sapiens, canonical junction qPCR, read-out: MYB IC50 (decrease in CJ mRNA levels)
Method in brief: (§1)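 A673 or K562 cells were treated with compound, and lysates underwent cDNA synthesis and qPCR with a CY5 5′-nuclease probe or primer spanning the canonical exon junction. ΔCt versus GAPDH, GUSB or PPIA was normalized to DMSO (2^(−ΔΔCt)), converted to percentage response and fitted four-parameter logistic for IC50.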

[3] = tested on: SMN2 mRNA; assay: Gene panel canonical junction qPCR assay, SMN2 CJ mRNA decrease; assay type: cell-based, human; conditions: Homo sapiens, canonical junction qPCR, read-out: SMN2 IC50 (decrease in CJ mRNA levels)
Method in brief: as §1

SMILES	pIC50 [1]	AC50 [1] [µM]	pIC50 [2]	pIC50 [3]
COc1ccc2c(N3C[C@@H](C)N[C@@H](C)C3)ccc(C(=O)Nc3cc(F)c4nc(C)cn4c3)c2n1 [Compound 268, 5-[(3R,5S)-3,5-dimethylpiperazin-1-yl]-N-{8-fluoro-2-methylimidazo[1,2-a]pyridin-6-yl}-2-methoxyquinoline-8-carboxamide]	6.00 to 7.00	< 0.1	6.00 to 7.00	> 7.00
Cc1cn2cc(NC(=O)c3ccc(N4CC[C@@H](N)C4)c4ccnnc34)cc(F)c2n1 [Compound 270]	6.00 to 7.00	< 0.1	6.00 to 7.00	> 7.00
COc1cc2c(N3C[C@@H](C)N[C@@H](C)C3)ccc(C(=O)Nc3cc(F)c4nc(C)cn4c3)c2nn1 [Compound 273, 5-[(3R,5S)-3,5-dimethylpiperazin-1-yl]-N-{8-fluoro-2-methylimidazo[1,2-a]pyridin-6-yl}-3-methoxycinnoline-8-carboxamide]	6.00 to 7.00	0.1 to 1	6.00 to 7.00	> 7.00
Cc1cn2cc(NC(=O)c3ccc(N4C[C@@H](C)N[C@@H](C)C4)c4ncc(O)nc34)cc(F)c2n1 [Compound 275]	< 5.00	> 10	< 5.00	< 5.00
COc1nc(NC(=O)c2ccc(N3C[C@@H](C)N[C@@H](C)C3)c3nccnc23)cn2cc(C)nc12 [Compound 277]	> 7.00	< 0.1	> 7.00	> 7.00
Cc1cn2cc(NC(=O)c3ccc(N4C[C@@H](C)N[C@@H](C)C4)c4nccnc34)nc(Cl)c2n1 [Compound 279]	> 7.00	0.1 to 1	> 7.00	> 7.00
Cc1cn2cc(NC(=O)c3ccc(N4C[C@@H](C)N[C@@H](C)C4)c4ncc(Cl)nc34)cc(F)c2n1 [Compound 281]	5.00 to 6.00	1 to 10	5.00 to 6.00	5.00 to 6.00
Cc1cn2cc(NC(=O)c3ccc(N4C[C@@H](C)N[C@@H](C)C4)c4ncc(N(C)C)nc34)cc(F)c2n1 [Compound 283]	> 7.00	0.1 to 1	> 7.00	> 7.00
Cc1cn2c(C)c(NC(=O)c3ccc(N4C[C@@H](C)N[C@@H](C)C4)c4nccnc34)cc(F)c2n1 [Compound 285]	6.00 to 7.00	1 to 10	6.00 to 7.00	6.00 to 7.00
COc1nc(NC(=O)c2ccc(N3C[C@@H](C)N[C@@H](C)C3)c3nccnc23)nc2cn(C)nc12 [Compound 287]	5.00 to 6.00	> 10	5.00 to 6.00	5.00 to 6.00
Cc1cn2cc(NC(=O)c3ccc(N4C[C@@H](C)N[C@@H](C)C4)c4nccnc34)nc(C)c2n1 [Compound 288]	> 7.00	< 0.1	> 7.00	> 7.00
C[C@@H]1CN(c2ccc(C(=O)Nc3ccc4nc(N(C)C)oc4c3)c3nccnc23)C[C@H](C)N1 [Compound 290]	5.00 to 6.00	> 10	5.00 to 6.00	< 5.00
COc1nc2ccc(NC(=O)c3ccc(N4C[C@@H](C)N[C@@H](C)C4)c4nccnc34)cc2o1 [Compound 292]	5.00 to 6.00	> 10	5.00 to 6.00	5.00 to 6.00
Cc1cn2cc(NC(=O)c3ccc(N4C[C@@H](C)N[C@@H](C)C4)c4nccnc34)cc(C#N)c2n1 [Compound 294]	6.00 to 7.00	0.1 to 1	6.00 to 7.00	> 7.00
CCOc1cnc2c(N3C[C@@H](C)N[C@@H](C)C3)ccc(C(=O)Nc3cc(F)c4nc(C)cn4c3)c2n1 [Compound 296]	> 7.00	< 0.1	> 7.00	> 7.00
COc1nc(NC(=O)c2ccc(N3C[C@@H](C)N[C@@H](C)C3)c3nccnc23)cc2oc(C)nc12 [Compound 298]	6.00 to 7.00	0.1 to 1	6.00 to 7.00	> 7.00
COc1ncc2c(N3C[C@@H](C)N[C@@H](C)C3)ccc(C(=O)Nc3cc(F)c4nc(C)cn4c3)c2n1 [Compound 300]	> 7.00	< 0.1	> 7.00	> 7.00
Cc1cn2cc(NC(=O)c3ccc(N4C[C@@H](C)N[C@@H](C)C4)c4cncnc34)cc(F)c2n1 [Compound 302]	6.00 to 7.00	0.1 to 1	6.00 to 7.00	> 7.00
Cc1cn2cc(NC(=O)c3ccc(N4C[C@@H](C)N[C@@H](C)C4)c4nccnc34)cc(Cl)c2n1 [Compound 304]	> 7.00	< 0.1	> 7.00	> 7.00
C[C@@H]1CN(c2ccc(C(=O)Nc3cc(F)c4nc(Cl)cn4c3)c3nccnc23)C[C@H](C)N1 [Compound 306]	6.00 to 7.00	0.1 to 1	6.00 to 7.00	> 7.00
